In patent US20230113037A1 (Bayer Aktiengesellschaft, priority 2019, published 2023):
Like-named read-outs stand apart in the source and are kept apart here.

Key:
AHR [1] = molecular target: T1, AHR (Mus musculus, UniProt P30561); test: In vitro assay 3: antagonism in mouse cell line (AHR transactivation, firefly luciferase reporter, kynurenic acid prestimulated); assay type: cell-based
T1 sequence (P30561 1-848 P471L/N533S/M589L): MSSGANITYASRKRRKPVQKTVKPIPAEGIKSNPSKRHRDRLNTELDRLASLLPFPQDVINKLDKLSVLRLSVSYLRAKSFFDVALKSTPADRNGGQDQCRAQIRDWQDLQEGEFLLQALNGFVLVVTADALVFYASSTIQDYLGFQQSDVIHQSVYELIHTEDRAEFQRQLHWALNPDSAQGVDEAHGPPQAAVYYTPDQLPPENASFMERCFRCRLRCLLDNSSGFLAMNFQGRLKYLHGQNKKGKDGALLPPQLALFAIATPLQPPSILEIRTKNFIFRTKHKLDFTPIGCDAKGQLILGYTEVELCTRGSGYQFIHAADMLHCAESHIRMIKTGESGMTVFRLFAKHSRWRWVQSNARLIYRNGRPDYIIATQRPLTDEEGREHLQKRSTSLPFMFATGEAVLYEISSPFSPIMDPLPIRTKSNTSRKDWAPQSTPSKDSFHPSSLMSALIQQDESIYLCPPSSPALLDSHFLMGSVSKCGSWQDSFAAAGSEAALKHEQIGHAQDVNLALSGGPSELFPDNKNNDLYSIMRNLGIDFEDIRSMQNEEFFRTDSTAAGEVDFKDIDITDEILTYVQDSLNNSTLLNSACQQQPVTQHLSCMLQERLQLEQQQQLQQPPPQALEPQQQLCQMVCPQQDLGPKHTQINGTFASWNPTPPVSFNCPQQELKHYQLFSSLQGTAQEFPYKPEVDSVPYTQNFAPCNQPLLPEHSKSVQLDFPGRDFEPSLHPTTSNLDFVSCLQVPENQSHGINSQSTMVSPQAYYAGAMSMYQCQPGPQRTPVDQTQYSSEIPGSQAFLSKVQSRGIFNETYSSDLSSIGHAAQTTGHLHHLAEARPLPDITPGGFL
Outline: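 Mouse cells stably carrying a DRE-driven, AHR-inducible firefly luciferase reporter were prestimulated with the endogenous agonist kynurenic acid before compound addition. Luciferase activity was measured by luminescence and normalized to positive and negative controls, with cells lacking kynurenic acid serving as full-inhibition control. Repeat tests are reported as mean or median.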

AHR [2] = molecular target: T2, AHR (Homo sapiens, UniProt P35869); test: In vitro assay 1: antagonism in human cell line (AHR transactivation, firefly luciferase reporter, kynurenic acid prestimulated); assay type: cell-based; conditions: AHR Antagonism Human IC50 [M], firefly luciferase reporter
T2 construct: U87 MG glioblastoma cells (ATCC #HTB-14) endogenously expressing AHR; endogenous in cells; host or cells: U87 MG glioblastoma cells (ATCC #HTB-14)
T2 sequence (P35869 11-848): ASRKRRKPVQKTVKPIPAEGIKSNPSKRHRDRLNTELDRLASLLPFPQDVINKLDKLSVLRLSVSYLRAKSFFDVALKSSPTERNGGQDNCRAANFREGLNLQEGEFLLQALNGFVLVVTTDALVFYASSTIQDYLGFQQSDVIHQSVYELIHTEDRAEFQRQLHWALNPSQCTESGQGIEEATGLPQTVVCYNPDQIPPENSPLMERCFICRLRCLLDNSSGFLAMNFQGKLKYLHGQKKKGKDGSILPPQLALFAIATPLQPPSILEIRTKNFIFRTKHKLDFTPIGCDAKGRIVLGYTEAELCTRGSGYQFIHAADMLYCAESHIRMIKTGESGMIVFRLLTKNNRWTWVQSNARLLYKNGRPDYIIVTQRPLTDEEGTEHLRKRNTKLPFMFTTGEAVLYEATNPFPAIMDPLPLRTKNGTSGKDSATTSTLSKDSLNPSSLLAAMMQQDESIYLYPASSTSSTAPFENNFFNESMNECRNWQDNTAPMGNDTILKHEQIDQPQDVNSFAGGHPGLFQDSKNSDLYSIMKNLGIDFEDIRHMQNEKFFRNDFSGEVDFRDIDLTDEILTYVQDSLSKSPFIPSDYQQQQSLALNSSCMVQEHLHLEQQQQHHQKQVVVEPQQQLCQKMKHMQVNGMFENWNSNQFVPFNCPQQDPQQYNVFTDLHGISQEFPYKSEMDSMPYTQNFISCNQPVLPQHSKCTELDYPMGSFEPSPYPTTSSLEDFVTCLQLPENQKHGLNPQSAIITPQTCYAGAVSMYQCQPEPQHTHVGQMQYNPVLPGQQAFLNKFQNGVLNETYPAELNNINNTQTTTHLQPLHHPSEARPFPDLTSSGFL
Outline: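 U87 MG glioblastoma cells with endogenous AHR, stably carrying a DRE-driven firefly luciferase reporter and constitutive Renilla reporter, prestimulated with kynurenic acid before compound addition. Firefly and Renilla read by dual luciferase; Renilla flags toxicity; normalized to controls (150 μM kynurenic acid + 5 μM staurosporine as full inhibition); repeat values averaged or median.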

[3] = Hepa 1c1c7 cells, 200 μM kynurenic acid, 20 hours, firefly luciferase reporter, read-out: AHR Antagonism Mouse IC50
[4] = read-out: AHR Antagonism Mouse IC50, Hepa 1c1c7 cells, 200 μM kynurenic acid, 20 hours, firefly luciferase reporter

IC50 (AHR [1]; [3]) | IC50 (AHR [2]) | SMILES | IC50 (AHR [1]; [4])
1.71 nM | 1.32e-09 M | COc1ccc(-c2nc3c4cccc(Br)c4nc(N[C@H](C)C(=O)N4CCN(C)[C@H](C)C4)n3n2)cc1 [Example 913, (2R)-2-{[7-bromo-2-(4-methoxyphenyl)[1,2,4]triazolo[1,5-c]quinazolin-5-yl]amino}-1-[(3R)-3,4-dimethylpiperazin-1-yl]propan-1-one] | –
31.9 nM | 3.07e-08 M | COc1ccc(-c2nc3c4cccc(Br)c4nc(N[C@H](C)C(=O)N4CC5(CN(C)C5)C4)n3n2)cc1 [Example 918, (2R)-2-{[7-bromo-2-(4-methoxyphenyl)[1,2,4]triazolo[1,5-c]quinazolin-5-yl]amino}-1-(6-methyl-2,6-diazaspiro[3.3]heptan-2-yl)propan-1-one] | –
2.03 nM | 2.47e-09 M | COc1ccc(-c2nc3c4cccc(Br)c4nc(N[C@@H](C(=O)N4CCN(C)CC4)C(C)C)n3n2)cc1 [Example 922, (2R)-2-{[7-bromo-2-(4-methoxyphenyl)[1,2,4]triazolo[1,5-c]quinazolin-5-yl]amino}-3-methyl-1-(4-methylpiperazin-1-yl)butan-1-one] | –
2.13 nM | 3.26e-09 M | COCCNC(=O)[C@H](Nc1nc2c(Br)cccc2c2nc(-c3ccc(OC)cc3)nn12)C(C)C [Example 923, N^2-[7-bromo-2-(4-methoxyphenyl)[1,2,4]triazolo[1,5-c]quinazolin-5-yl]-N-(2-methoxyethyl)-D-valinamide] | –
3.8 nM | 6.71e-09 M | COc1ccc(-c2nc3c4cccc(Br)c4nc(N[C@@H](C(=O)NCCN4CCN(C)CC4)C(C)C)n3n2)cc1 [Example 924, N^2-[7-bromo-2-(4-methoxyphenyl)[1,2,4]triazolo[1,5-c]quinazolin-5-yl]-N-[2-(4-methylpiperazin-1-yl)ethyl]-D-valinamide] | –
4.14 nM | 6.08e-09 M | COc1ccc(-c2nc3c4cccc(Br)c4nc(N[C@@H](C(=O)N4CCOCC4)C(C)C)n3n2)cc1 [Example 925, (2R)-2-{[7-bromo-2-(4-methoxyphenyl)[1,2,4]triazolo[1,5-c]quinazolin-5-yl]amino}-3-methyl-1-(morpholin-4-yl)butan-1-one] | –
34.4 nM | 6.5e-08 M | CC(C)[C@@H](Nc1nc2c(Br)cccc2c2nc(-c3cnn(C)c3)nn12)C(=O)NCCN1CCN(C)CC1 [Example 927, N^2-[7-bromo-2-(1-methyl-1H-pyrazol-4-yl)[1,2,4]triazolo[1,5-c]quinazolin-5-yl]-N-[2-(4-methylpiperazin-1-yl)ethyl]-D-valinamide] | –
10.9 nM | 3.93e-08 M | COCCNC(=O)[C@H](Nc1nc2c(Br)cccc2c2nc(-c3cnn(C)c3)nn12)C(C)C [Example 929, N^2-[7-bromo-2-(1-methyl-1H-pyrazol-4-yl)[1,2,4]triazolo[1,5-c]quinazolin-5-yl]-N-(2-methoxyethyl)-D-valinamide] | –

Further lines, the compound ahead of its results:

SMILES | IC50 (AHR [1]; [3]) | IC50 (AHR [2]) | IC50 (AHR [1]; [4])
COc1ccc(-c2nc3c4cccc(Br)c4nc(N[C@H](C)C(=O)N4C[C@@H]5C[C@H]4CO5)n3n2)cc1 [Example 914, (2R)-2-{[7-bromo-2-(4-methoxyphenyl)[1,2,4]triazolo[1,5-c]quinazolin-5-yl]amino}-1-[(1S,4S)-2-oxa-5-azabicyclo[2.2.1]heptan-5-yl]propan-1-one] | 1.36 nM | 8.96e-10 M | –
C[C@@H](Nc1nc2c(Br)cccc2c2nc(-c3cnn(C)c3)nn12)C(=O)N1C[C@@H]2C[C@H]1CO2 [Example 915, (2R)-2-{[7-bromo-2-(1-methyl-1H-pyrazol-4-yl)[1,2,4]triaozlo[1,5-c]quinazolin-5-yl]amino}-1-[(1S,4S)-2-oxa-5-azabicyclo[2.2.1]heptna-5-yl]propan-1-one] | 18.7 nM | 1.74e-08 M | –
COc1ccc(-c2nc3c4cccc(Br)c4nc(N[C@H](C)C(=O)N4CC5(COC5)C4)n3n2)cc1 [Example 916, (2R)-2-{[7-bromo-2-(4-methoxyphenyl)[1,2,4]triazolo[1,5-c]quinazolin-5-yl]amino}-1-(2-oxa-6-azaspiro[3.3]heptan-6-yl)propan-1-one] | – | 1.06e-09 M | 2.22 nM
C[C@@H](Nc1nc2c(Br)cccc2c2nc(-c3cnn(C)c3)nn12)C(=O)N1CC2(COC2)C1 [Example 917, (2R)-2-{[7-bromo-2-(1-methyl-1H-pyrazol-4-yl)[1,2,4]triazolo[1,5-c]quinazolin-5-yl]amino}-1-(2-oxa-6-azaspiro[3.3]heptan-6-yl)propan-1-one] | – | 3.76e-08 M | 65.6 nM
C[C@@H](Nc1nc2c(Br)cccc2c2nc(-c3cnn(C)c3)nn12)C(=O)N1CC2(CN(C)C2)C1 [Example 919, (2R)-2-{[7-bromo-2-(1-methyl-1H-pyrazol-4-yl)[1,2,4]triazolo[1,5-c]quinazolin-5-yl]amino}-1-(6-methyl-2,6-diazaspiro[3.3]heptan-2-yl)propan-1-one] | 613 nM | 1.18e-06 M | –
COc1ccc(-c2nc3c4cccc(Br)c4nc(N[C@H](C)C(=O)N4CC5(CN(C(=O)OC(C)(C)C)C5)C4)n3n2)cc1 [Example 920, tert-butyl 6-{N-[7-bromo-2-(4-methoxyphenyl)[1,2,4]triazolo[1,5-c]quinazolin-5-yl]-D-alanyl}-2,6-diazaspiro[3.3]heptane-2-carboxylate] | 11 nM | 7.45e-09 M | –
C[C@@H](Nc1nc2c(Br)cccc2c2nc(-c3cnn(C)c3)nn12)C(=O)N1CC2(CN(C(=O)OC(C)(C)C)C2)C1 [Example 921, tert-butyl 6-{N-[7-bromo-2-(1-methyl-1H-pyrazol-4-yl)[1,2,4]triazolo[1,5-c]quinazolin-5-yl]-D-alanyl}-2,6-diazaspiro[3.3]heptane-2-carboxylate] | 98.3 nM | 4.24e-08 M | –
CC(C)[C@@H](Nc1nc2c(Br)cccc2c2nc(-c3cnn(C)c3)nn12)C(=O)N1CCOCC1 [Example 926, (2R)-2-{[7-bromo-2-(1-methyl-1H-pyrazol-4-yl)[1,2,4]triazolo[1,5-c]quinazolin-5-yl]amino}-3-methyl-1-(morpholin-4-yl)butan-1-one] | 6.16 nM | 3.45e-08 M | –
CC(C)[C@@H](Nc1nc2c(Br)cccc2c2nc(-c3cnn(C)c3)nn12)C(=O)N1CCN(C)CC1 [Example 928, (2R)-2-{[7-bromo-2-(1-methyl-1H-pyrazol-4-yl)[1,2,4]triazolo[1,5-c]quinazolin-5-yl]amino}-3-methyl-1-(4-methylpiperazin-1-yl)butan-1-one] | 5.76 nM | 1.81e-08 M | –
Cn1cc(-c2nc3c4cccc(C#N)c4nc(N[C@@H]4CNCCNC4=O)n3n2)cn1 [Example 930, 2-(1-methyl-1H-pyrazol-4-yl)-5-{[(6R)-5-oxo-1,4-diazepan-6-yl]amino}[1,2,4]triazolo[1,5-c]quinazoline-7-carbonitrile] | 14100 nM | 5.21e-06 M | –
